Data set [1] relates to Caco-2 cells (human intestinal epithelial cells). Format: in vitro ADME. As to the method:
The cellular uptake of [^3H] SPN10(s) (with or without aromatic-cationic peptides) or [^3H] peptide conjugates will be studied using Caco-2 cells (human intestinal epithelial cells), and confirmed using SH-SY5Y (human neuroblastoma), HEK293 (human embryonic kidney) and CRFK (kidney epithelial) cells. Monolayers of cells will be cultured in 12-well plates (5×10^5 cells/well) coated with collagen for 3 days. On day 4, the cells will be washed twice with pre-warmed HBSS, and incubated with 0.2 mL of HBSS containing 250 nM [^3H] peptide conjugates; [^3H] aromatic-cationic peptides (an equivalent molar dose of aromatic-cationic peptide based on the concentration of the aromatic-cationic peptide administered in the peptide conjugate treatment group); [^3H] SPN10(s) (an equivalent molar dose of SPN10 based on the concentration of SPN10 administered in the peptide conjugate treatment group); or SPN10(s) in combination with aromatic-cationic peptides (e.g., an equivalent molar dose of SPN10 based on the concentration of SPN10 administered in the peptide conjugate treatment group and an equivalent molar dose of aromatic-cationic peptide based on the concentration of aromatic-cationic peptide administered in the peptide conjugate treatment group) at 37° C. or 4° C. for various times up to 1 hour. […] The cell lysates will then be transferred to scintillation vials and radioactivity will be counted. To distinguish between internalized radioactivity and surface-associated radioactivity, an acid-wash step will be included. […] Excitation will be performed at 340 nm by means of a UV laser, and emission will be measured at 520 nm. […]

A short description of data set [2]: Example 17: linoleic acid peroxidation induced by ABAP. The class given is biochemical. As to the method: Linoleic acid peroxidation will be induced using the water-soluble initiator 2,2′-azobis(2-amidinopropane) (ABAP), and lipid peroxidation will be detected by the formation of conjugated dienes, monitored spectrophotometrically at 236 nm (E. Longoni, W. A. Pryor, P. Marchiafava, Biochem. Biophys. Res. Commun. 233, 778-780 (1997)).
5 mL of 0.5 M ABAP and varying concentrations of peptide conjugates; aromatic-cationic peptides (an equivalent molar dose of aromatic-cationic peptide based on the concentration of the aromatic-cationic peptide administered in the peptide conjugate treatment group); SPN10(s) (an equivalent molar dose of SPN10 based on the concentration of SPN10 administered in the peptide conjugate treatment group); or SPN10(s) in combination with aromatic-cationic peptides (e.g., an equivalent molar dose of SPN10 based on the concentration of SPN10 administered in the peptide conjugate treatment group and an equivalent molar dose of aromatic-cationic peptide based on the concentration of aromatic-cationic peptide administered in the peptide conjugate treatment group) will be incubated in 2.4 mL linoleic acid suspension until autoxidation rate becomes constant.

Another data set relates to transplant patients. The experiment in a line: Cyclosporine nephrotoxicity and organ health in transplant patients. The class given is in vivo, human. The conditions noted are these: subjects receiving cyclosporine. The text has this:
To prevent organ or tissue rejection after transplant, patients often receive a regimen of the immunosuppressive drug cyclosporine. Cyclosporine levels are established and maintained in the subject at levels to effectively suppress the immune system. However, nephrotoxicity is a concern for these subjects, and the level of the drug in the subject's blood is monitored carefully. Cyclosporine doses are adjusted accordingly in order to not only prevent rejection, but also to deter these potentially damaging side effects. Typically, an adult transplant patient receives cyclosporine as follows: IV: 2 to 4 mg/kg/day IV infusion once daily over 4 to 6 hours, or 1 to 2 mg/kg IV infusion twice a day over 4 to 6 hours, or 2 to 4 mg/kg/day as a continuous IV infusion over 24 hours. Capsules: 8 to 12 mg/kg/day orally in 2 divided doses. Solution: 8 to 12 mg/kg orally once daily. In some patients, doses can be titrated downward with time to maintenance doses as low as 3 to 5 mg/kg/day. […]
Transplant subjects receiving cyclosporine pursuant to standard pre- and post-transplant procedures will be divided into groups. […] Subjects will be monitored for health and function of the transplanted tissue or organ, as well as the incidence and severity of nephrotoxicity often seen with prolonged cyclosporine administration.

Residues, ends and D or L forms follow the SMILES beside them.

As to `N=C(N)NCCC[C@H](NC(=O)[C@@H](N)Cc1c[nH]c2ccccc12)C(=O)N[C@@H](Cc1c[nH]c2ccccc12)C(=O)N[C@@H](CCCCN)C(N)=O` [SPN10, H-L-Trp-L-Arg-L-Trp-L-Lys-NH2] (H-WRWK-NH2), in data set [1], the “rate of uptake at 4° C. compared to 37° C.” value is listed as “slower”, the “saturation of uptake by 45 minutes” value amounted to 76.5% and the “saturation of uptake by 1 hour” value came to 86.3%. Also, the “peroxidation of linoleic acid” value in data set [2] was “dose-dependently inhibit the peroxidation of linoleic acid”. For the same molecule, in the data set with transplant patients, the “health of transplanted organ or tissue, cyclosporine dosage maintained” value is given as “healthier transplanted organ or tissue”.
